Measured values: US9113629B2, “4-amino-6-(4-substituted-phenyl)-picolinates and 6-amino-2-(4-substituted-phenyl)-pyrimidine-4-carboxylates and their use as herbicides” (DOW AGROSCIENCES LLC, priority 2013, dated 2015)

Tests used:
Test in all cases: Post-emergent Test III, herbicidal activity in wheat and barley
Format in all cases: in vivo
[1] = system: HORSS: barley, including spring and winter (Hordeum vulgare); conditions: 21 days after application; for pest or weed control at 35 g/ha: 35 g ai/ha; for pest or weed control at 70 g/ha: 70 g ai/ha; for GR20 HORSS: probit analysis, dose for 20 percent growth reduction (crop)
How it was run: (§1)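 GR20, GR50, GR80 and GR90 come from probit analysis of visual injury scores (0 = none, 100 = complete kill) taken 21 d after treatment. Foliar application was by track sprayer delivering 187 L/ha at five rates, from high down to 1/16×, onto greenhouse plants at the 2–3 leaf stage, with solvent-blank controls.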

[2] = system: KCHSC: kochia (Kochia scoparia); conditions: 21 days after application; for pest or weed control at 35 g/ha: 35 g ai/ha; for pest or weed control at 70 g/ha: 70 g ai/ha; for GR50 KCHSC / GR80 KCHSC: probit analysis; for GR50 KCHSC: dose for 50 percent growth reduction; for GR80 KCHSC: dose for 80 percent growth reduction
How it was run: as §1

[3] = system: MATSS: scented mayweed (Matricaria chamomilla), pineappleweed (Matricaria matricarioides); conditions: 21 days after application; for pest or weed control at 35 g/ha: 35 g ai/ha; for pest or weed control at 70 g/ha: 70 g ai/ha; for GR50 MATSS / GR80 MATSS: probit analysis; for GR50 MATSS: dose for 50 percent growth reduction; for GR80 MATSS: dose for 80 percent growth reduction
How it was run: as §1

[4] = system: SASKR: Russian thistle (Salsola iberica); conditions: 21 days after application; for pest or weed control at 35 g/ha: 35 g ai/ha; for pest or weed control at 70 g/ha: 70 g ai/ha; for GR50 SASKR / GR80 SASKR: probit analysis; for GR50 SASKR: dose for 50 percent growth reduction; for GR80 SASKR: dose for 80 percent growth reduction
How it was run: as §1

[5] = system: TRZSS: wheat, including spring and winter (Triticum aestivum); conditions: 21 days after application; for pest or weed control at 35 g/ha: 35 g ai/ha; for pest or weed control at 70 g/ha: 70 g ai/ha; for GR20 TRZSS: probit analysis, dose for 20 percent growth reduction (crop)
How it was run: as §1

[6] = system: VERPE: bird's-eye speedwell (veronica persica); conditions: 21 days after application; for pest or weed control at 35 g/ha: 35 g ai/ha; for pest or weed control at 70 g/ha: 70 g ai/ha; for GR50 VERPE / GR80 VERPE: probit analysis; for GR50 VERPE: dose for 50 percent growth reduction; for GR80 VERPE: dose for 80 percent growth reduction
How it was run: as §1

[7] = system: VIOSS: wild pansy (Viola tricolor), field violet (Viola arvensis); conditions: 21 days after application; for pest or weed control at 35 g/ha: 35 g ai/ha; for pest or weed control at 70 g/ha: 70 g ai/ha; for GR50 VIOSS / GR80 VIOSS: probit analysis; for GR50 VIOSS: dose for 50 percent growth reduction; for GR80 VIOSS: dose for 80 percent growth reduction
How it was run: as §1

[8] = Hordeum vulgare, post-emergence, 504 h, read-out: Visual Gorowth Reduction (%) 21 days After Application HORSS
[9] = Bassia scoparia, post-emergence, 504 h, read-out: Visual Gorowth Reduction (%) 21 days After Application KCHSC
[10] = Matricaria chamomilla, post-emergence, 504 h, read-out: Visual Gorowth Reduction (%) 21 days After Application MATSS
[11] = Salsola tragus, post-emergence, 504 h, read-out: Visual Gorowth Reduction (%) 21 days After Application SASKR
[12] = Triticum aestivum, post-emergence, 504 h, read-out: Visual Gorowth Reduction (%) 21 days After Application TRZSS
[13] = Veronica persica, post-emergence, 504 h, read-out: Visual Gorowth Reduction (%) 21 days After Application VERPE
[14] = Viola tricolor, post-emergence, 504 h, read-out: Visual Gorowth Reduction (%) 21 days After Application VIOSS

With Nc1c(F)c(-c2ccc(I)c(F)c2)nc(C(=O)O)c1Cl [Compound 157] the pest or weed control at 35 g/ha [1, 8] was 85 to 94%, the pest or weed control at 70 g/ha [1, 8] was 95 to 100% and the “GR20 HORSS” value [1] was 1 g ai/ha. For the same compound, the pest or weed control at 35 g/ha [2, 9] was 85 to 94%, the pest or weed control at 70 g/ha [2, 9] was 85 to 94% and the “GR50 KCHSC” value [2] was 6 g ai/ha. For the same compound, the “GR80 KCHSC” value [2] was 18 g ai/ha, the pest or weed control at 35 g/ha [3, 10] was 60 to 74% and the pest or weed control at 70 g/ha [3, 10] was 75 to 84%. The “GR50 MATSS” value [3] was 21 g ai/ha, the “GR80 MATSS” value [3] was 64 g ai/ha and the pest or weed control at 35 g/ha [4, 11] was 75 to 84%. The pest or weed control at 70 g/ha [4, 11] was 85 to 94%, the “GR50 SASKR” value [4] was 11 g ai/ha and the “GR80 SASKR” value [4] was 34 g ai/ha. For the same compound, the pest or weed control at 35 g/ha [5, 12] was 75 to 84%, the pest or weed control at 70 g/ha [5, 12] was 75 to 84% and the “GR20 TRZSS” value [5] was 1 g ai/ha. The pest or weed control at 35 g/ha [6, 13] was 30 to 44%, the pest or weed control at 70 g/ha [6, 13] was 60 to 74% and the “GR50 VERPE” value [6] was 50 g ai/ha. The “GR80 VERPE” value [6] was over 140 g ai/ha, the pest or weed control at 35 g/ha [7, 14] was 95 to 100% and the pest or weed control at 70 g/ha [7, 14] was 95 to 100%. For the same compound, the “GR50 VIOSS” value [7] was 1 g ai/ha and the “GR80 VIOSS” value [7] was 4 g ai/ha.
Nc1c(F)c(-c2ccc(Br)cc2F)nc(C(=O)O)c1Cl [Compound 163] was tested, and the pest or weed control at 35 g/ha [1, 8] was 85 to 94%, the pest or weed control at 70 g/ha [1, 8] was 95 to 100% and the “GR20 HORSS” value [1] was 1 g ai/ha. For the same compound, the pest or weed control at 35 g/ha [2, 9] was 75 to 84%, the pest or weed control at 70 g/ha [2, 9] was 85 to 94% and the “GR50 KCHSC” value [2] was 8 g ai/ha. For the same compound, the “GR80 KCHSC” value [2] was 36 g ai/ha, the pest or weed control at 35 g/ha [3, 10] was 75 to 84% and the pest or weed control at 70 g/ha [3, 10] was 95 to 100%. For the same compound, the “GR50 MATSS” value [3] was 5 g ai/ha, the “GR80 MATSS” value [3] was 24 g ai/ha and the pest or weed control at 35 g/ha [4, 11] was 75 to 84%. For the same compound, the pest or weed control at 70 g/ha [4, 11] was 85 to 94%, the “GR50 SASKR” value [4] was 3 g ai/ha and the “GR80 SASKR” value [4] was 27 g ai/ha. For the same compound, the pest or weed control at 35 g/ha [5, 12] was 75 to 84%, the pest or weed control at 70 g/ha [5, 12] was 75 to 84% and the “GR20 TRZSS” value [5] was 1 g ai/ha. For the same compound, the pest or weed control at 35 g/ha [6, 13] was 75 to 84%, the pest or weed control at 70 g/ha [6, 13] was 95 to 100% and the “GR50 VERPE” value [6] was 13 g ai/ha. For the same compound, the “GR80 VERPE” value [6] was 30 g ai/ha, the pest or weed control at 35 g/ha [7, 14] was 75 to 84% and the pest or weed control at 70 g/ha [7, 14] was 95 to 100%. The “GR50 VIOSS” value [7] was 14 g ai/ha and the “GR80 VIOSS” value [7] was 29 g ai/ha.
Work on Nc1c(F)c(-c2ccc(I)cc2F)nc(C(=O)O)c1Cl [Compound 169] yielded a pest or weed control at 37.1 g/ha ([1]; Hordeum vulgare, post-emergence, 504 h, 37.1 g ai/ha, read-out: Visual Gorowth Reduction (%) 21 days After Application HORSS) of 95 to 100%, a pest or weed control at 74.3 g/ha ([1]; Hordeum vulgare, post-emergence, 504 h, 74.3 g ai/ha, read-out: Visual Gorowth Reduction (%) 21 days After Application HORSS) of 95 to 100% and a pest or weed control at 149 g/ha ([1]; Hordeum vulgare, post-emergence, 504 h, 149 g ai/ha, read-out: Visual Gorowth Reduction (%) 21 days After Application HORSS) of 95 to 100%. The “GR20 HORSS” value [1] was 1 g ai/ha, the pest or weed control at 37.1 g/ha ([2]; Bassia scoparia, post-emergence, 504 h, 37.1 g ai/ha, read-out: Visual Gorowth Reduction (%) 21 days After Application KCHSC) was 60 to 74% and the pest or weed control at 74.3 g/ha ([2]; Bassia scoparia, post-emergence, 504 h, 74.3 g ai/ha, read-out: Visual Gorowth Reduction (%) 21 days After Application KCHSC) was 85 to 94%. The pest or weed control at 149 g/ha ([2]; Bassia scoparia, post-emergence, 504 h, 149 g ai/ha, read-out: Visual Gorowth Reduction (%) 21 days After Application KCHSC) was 85 to 94%, the “GR50 KCHSC” value [2] was 8 g ai/ha and the “GR80 KCHSC” value [2] was 72 g ai/ha. It also gave a pest or weed control at 37.1 g/ha ([3]; Matricaria chamomilla, post-emergence, 504 h, 37.1 g ai/ha, read-out: Visual Gorowth Reduction (%) 21 days After Application MATSS) of 75 to 84%, a pest or weed control at 74.3 g/ha ([3]; Matricaria chamomilla, post-emergence, 504 h, 74.3 g ai/ha, read-out: Visual Gorowth Reduction (%) 21 days After Application MATSS) of 95 to 100% and a pest or weed control at 149 g/ha ([3]; Matricaria chamomilla, post-emergence, 504 h, 149 g ai/ha, read-out: Visual Gorowth Reduction (%) 21 days After Application MATSS) of 95 to 100%. For the same compound, the “GR50 MATSS” value [3] was 15 g ai/ha, the “GR80 MATSS” value [3] was 35 g ai/ha and the pest or weed control at 37.1 g/ha ([4]; Salsola tragus, post-emergence, 504 h, 37.1 g ai/ha, read-out: Visual Gorowth Reduction (%) 21 days After Application SASKR) was 60 to 74%. The pest or weed control at 74.3 g/ha ([4]; Salsola tragus, post-emergence, 504 h, 74.3 g ai/ha, read-out: Visual Gorowth Reduction (%) 21 days After Application SASKR) was 75 to 84%, the pest or weed control at 149 g/ha ([4]; Salsola tragus, post-emergence, 504 h, 149 g ai/ha, read-out: Visual Gorowth Reduction (%) 21 days After Application SASKR) was 85 to 94% and the “GR50 SASKR” value [4] was 5 g ai/ha. For the same compound, the “GR80 SASKR” value [4] was 83 g ai/ha, the pest or weed control at 37.1 g/ha ([5]; Triticum aestivum, post-emergence, 504 h, 37.1 g ai/ha, read-out: Visual Gorowth Reduction (%) 21 days After Application TRZSS) was 75 to 84% and the pest or weed control at 74.3 g/ha ([5]; Triticum aestivum, post-emergence, 504 h, 74.3 g ai/ha, read-out: Visual Gorowth Reduction (%) 21 days After Application TRZSS) was 85 to 94%. The pest or weed control at 149 g/ha ([5]; Triticum aestivum, post-emergence, 504 h, 149 g ai/ha, read-out: Visual Gorowth Reduction (%) 21 days After Application TRZSS) was 85 to 94%, the “GR20 TRZSS” value [5] was 1 g ai/ha and the pest or weed control at 37.1 g/ha ([6]; Veronica persica, post-emergence, 504 h, 37.1 g ai/ha, read-out: Visual Gorowth Reduction (%) 21 days After Application VERPE) was 85 to 94%. The pest or weed control at 74.3 g/ha ([6]; Veronica persica, post-emergence, 504 h, 74.3 g ai/ha, read-out: Visual Gorowth Reduction (%) 21 days After Application VERPE) was 95 to 100%, the pest or weed control at 149 g/ha ([6]; Veronica persica, post-emergence, 504 h, 149 g ai/ha, read-out: Visual Gorowth Reduction (%) 21 days After Application VERPE) was 95 to 100% and the “GR50 VERPE” value [6] was 19 g ai/ha. For the same compound, the “GR80 VERPE” value [6] was 37 g ai/ha, the pest or weed control at 37.1 g/ha ([7]; Viola tricolor, post-emergence, 504 h, 37.1 g ai/ha, read-out: Visual Gorowth Reduction (%) 21 days After Application VIOSS) was 75 to 84% and the pest or weed control at 74.3 g/ha ([7]; Viola tricolor, post-emergence, 504 h, 74.3 g ai/ha, read-out: Visual Gorowth Reduction (%) 21 days After Application VIOSS) was 95 to 100%. The pest or weed control at 149 g/ha ([7]; Viola tricolor, post-emergence, 504 h, 149 g ai/ha, read-out: Visual Gorowth Reduction (%) 21 days After Application VIOSS) was 95 to 100%, the “GR50 VIOSS” value [7] was 21 g ai/ha and the “GR80 VIOSS” value [7] was 36 g ai/ha.
